How the values were obtained:
PTPN2 = molecular target: T1, PTPN2 (Homo sapiens, UniProt P17706); test: Phosphatase activity assay (Bio-Biochem-DiFMUP), PTPN2; assay type: biochemical; details: DiFMUP substrate, room temperature
T1 sequence (P17706 1-415): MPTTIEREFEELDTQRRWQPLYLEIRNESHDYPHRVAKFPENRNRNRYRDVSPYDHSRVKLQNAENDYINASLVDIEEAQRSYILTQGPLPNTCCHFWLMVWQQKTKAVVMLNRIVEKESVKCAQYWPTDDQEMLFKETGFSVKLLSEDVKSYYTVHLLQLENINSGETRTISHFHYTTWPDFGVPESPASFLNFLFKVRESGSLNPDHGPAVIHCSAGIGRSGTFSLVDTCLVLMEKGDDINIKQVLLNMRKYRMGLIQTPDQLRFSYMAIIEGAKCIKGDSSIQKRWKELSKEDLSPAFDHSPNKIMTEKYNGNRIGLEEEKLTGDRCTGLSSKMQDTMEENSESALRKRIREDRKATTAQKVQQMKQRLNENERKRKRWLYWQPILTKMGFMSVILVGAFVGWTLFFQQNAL
Description: (§1) The selectivity and potency of a small molecule PTPN2 inhibitor as provided herein (e.g., a derivative of Formula I, II, III, IV; or sub-formulae thereof) against one or more protein tyrosine phosphatase (PTP) enzymes, and specifically against PTPN2, can be assessed in various ways. The one or more PTP enzymes comprise Mycobacterium protein tyrosine phosphatase A (mPTPA), Mycobacterium protein tyrosine phosphatase B (mPTPB), PTPN1 (i.e., PTP1B), PTPN2 (i.e., TC-PTP), SHP-1, SHP-2, FAP-1, Meg2, HePTP, Laforin, VHX, VHR, LMWPTP, Cdcl4A, LAR, CD45, PTPRG, a fragment thereof, a variant thereof, and a combination thereof. Selectivity and potency of a small molecule PTPN2 inhibitor is evaluated using a PTP activity inhibition assay. The assay is performed using a buffer comprising 50 millimolar (mM) Bis-Tris (pH=6.3), 2 mM EDTA, and 5 mM N,N′-dimethyl-N,N′-bis(mercaptoacetyl)hydrazine (DMH). The assay is performed using a phosphated substrate, e.g., 10 mM fluorescein diphosphate (FDP) that is stored at −20° C. Alternatively or in addition to, the assay is performed using 10 mM DiFMUP as a phosphated substrate. Each PTP enzyme is diluted in an enzyme dilution buffer comprising 50 mM Bis-Tris (pH=6.3), 2 mM EDTA, 5 mM DMH, 20% (vol./vol.) glycerol, and 0.01% (vol./vol.) Triton X-100.
(§2) The assay is carried out at room temperature in 96 well plates. A reaction mixture of 170 microliter (μL) of the assay buffer comprising 10 μM FDP or DiFMIUP is added to each well. A 10 μL volume of (i) a compound disclosed herein (e.g., PTPN2 inhibitor) dissolved in DMSO at one of 10 concentrations from a serial dilution or (ii) DMSO alone for control is added to each well. The reaction is initiated by adding 20 μL of a PTP enzyme (e.g., PTPN2) that is diluted in the enzyme dilution buffer. The phosphatase activity of the PTP enzyme is assessed by monitoring appearance of a fluorescent product (e.g., fluorescein monophosphate (FMP) from FDP, or 6,8-difluoro-7-hydroxyl-4-coumarin (DiFMU) from DiFMUP) continuously for about 15 to 30 minutes, using the SpectraMax® Gemini™ XPS Microplate Spectrofluorometer (Molecular Devices®) with excitation of 440 nm and emission at 530 nm (cutoff filter at 525 nm) for FMP and excitation at 360 nm and emission at 450 nm (cutoff filter at 435 nm) for DiFMU. The rate (e.g., the initial rate) of FMP or DiFMU formation is plotted against the concentration of the small molecule PTPN2 inhibitor, and the data is fitted (e.g., using a 4-parameter equation) to determine the inflection point of the fit as the IC50 of the small molecule PTPN2 inhibitor for a specific enzyme. Table 6 summarizes the IC50 values of compounds disclosed herein against PTPN2 and PTPN1.

PTP1B = molecular target: T2, PTP1B (Homo sapiens, UniProt P18031); test: Phosphatase activity assay (Bio-Biochem-DiFMUP), PTP1B; assay type: biochemical; details: DiFMUP substrate, room temperature
T2 sequence (P18031 1-435): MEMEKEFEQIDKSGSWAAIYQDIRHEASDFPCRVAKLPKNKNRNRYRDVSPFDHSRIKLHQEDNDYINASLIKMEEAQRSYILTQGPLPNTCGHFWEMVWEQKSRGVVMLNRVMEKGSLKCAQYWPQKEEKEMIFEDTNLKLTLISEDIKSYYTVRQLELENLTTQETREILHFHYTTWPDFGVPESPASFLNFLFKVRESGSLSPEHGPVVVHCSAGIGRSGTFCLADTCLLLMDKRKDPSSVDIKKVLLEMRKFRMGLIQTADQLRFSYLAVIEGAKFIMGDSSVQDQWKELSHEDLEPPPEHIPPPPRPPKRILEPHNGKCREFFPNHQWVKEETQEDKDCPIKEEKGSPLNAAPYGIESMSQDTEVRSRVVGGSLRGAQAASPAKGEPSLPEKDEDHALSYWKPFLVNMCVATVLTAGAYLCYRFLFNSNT
Description: as §1, §2

| SMILES | IC50 (PTPN2) | IC50 (PTP1B) |
| --- | --- | --- |
| CN1CC=C(c2cnc3cc(O)c(C4=CC(=O)NS4(=O)=O)cc3c2)CC1 [Compound 114] | > 10000 nM | > 10000 nM |
| Cn1c(=O)c(NCC2(C#N)CC2)cc2cc(N3CC(=O)NS3(=O)=O)c(O)cc21 [Compound 202] | 1000 to 10000 nM | ≤ 1000 nM |
| O=C1CN(c2cc3nc(NCCc4ccccn4)ccc3cc2O)S(=O)(=O)N1 [Compound 126] | ≤ 1000 nM | ≤ 1000 nM |
| CC(C)CCNc1ccc2cc(O)c(N3C(C)C(=O)NS3(=O)=O)cc2n1 (stereo not shown) [Compound 137, 5-(6-hydroxy-2-(isopentylamino)quinolin-7-yl)-4-methyl-1,2,5-thiadiazolidin-3-one 1,1-dioxide] | ≤ 1000 nM | ≤ 1000 nM |
| O=C1C=C(c2cc3cc(Cl)cnc3cc2O)S(=O)(=O)N1 [Compound 107] | > 10000 nM | 1000 to 10000 nM |
| O=C1CN(c2cc3nc(OCCN4CCOCC4)ccc3cc2O)S(=O)(=O)N1 [Compound 131] | > 10000 nM | > 10000 nM |
| Cn1c(=O)c(N2CCCC2)cc2cc(N3CC(=O)NS3(=O)=O)c(O)cc21 [Compound 134] | 1000 to 10000 nM | ≤ 1000 nM |
| CC(C)CCNC(=O)c1cc2cc(N3CC(=O)NS3(=O)=O)c(O)cc2s1 [Compound 132] | ≤ 1000 nM | ≤ 1000 nM |
| CC(C)CCn1ccc2cc(O)c(N3CC(=O)NS3(=O)=O)cc2c1=O [Compound 199] | > 10000 nM | > 10000 nM |
| CC(C)CCN1Cc2cc(C3CC(=O)NS3(=O)=O)c(O)cc2CC1=O (stereo not shown) [Compound 112] | > 10000 nM | > 10000 nM |
| O=C1CN(c2cc3cc(C(=O)NCCc4ccccc4)sc3cc2O)S(=O)(=O)N1 [Compound 170] | ≤ 1000 nM | ≤ 1000 nM |
| CN(C)C1CN(c2cc3cc(N4CC(=O)NS4(=O)=O)c(O)cc3n(C)c2=O)C1 [Compound 172] | 1000 to 10000 nM | 1000 to 10000 nM |
| Cn1c(=O)c(NCCOC2CCCC2)cc2cc(N3CC(=O)NS3(=O)=O)c(O)cc21 [Compound 140] | 1000 to 10000 nM | ≤ 1000 nM |
| CC(C)CCCc1cc2cc(N3CC(=O)NS3(=O)=O)c(O)cc2n(C)c1=O [Compound 152] | ≤ 1000 nM | ≤ 1000 nM |
| COC(=O)c1cc2cc(N3CC(=O)NS3(=O)=O)c(O)cc2s1 [Compound 103] | 1000 to 10000 nM | 1000 to 10000 nM |
| CC(C)CCNc1cc2cc(N3CC(=O)NS3(=O)=O)c(O)cc2n(C2CC2)c1=O [Compound 145] | ≤ 1000 nM | ≤ 1000 nM |
| CC(C)CCCN1CCc2cc(O)c(N3CC(=O)NS3(=O)=O)cc2C1=O [Compound 105] | 1000 to 10000 nM | > 10000 nM |
